According to patent US12344610B2, “APOL1 inhibitors and methods of use” (Maze Therapeutics, Inc., priority 2022, dated 2025):
Read-outs that look alike come from different tables or passages of the source.

What was measured:
Assay type in all cases: cell-based
[1] = test system: HEK293 clonal cell line overexpressing APOL1 G1; assay: APOL1 G1 HEK293 cell rescue assay (Example B3); conditions: geometric mean of at least 2 runs, † = single run, ¥ = concentration at 50% rescue estimated (no sigmoidal curve)
How it was run: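 Rescue of cell death caused by APOL1 G1 overexpression was measured in a clonal HEK293 line. Compounds were tested in duplicate on one plate, and EC50s were geometric means across at least two runs on different days. Some values are estimated 50%-rescue concentrations where curve fitting failed.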

[2] = test system: Trypanosoma brucei Lister 427 VSG221 with APOL1 G0 recombinant protein; assay: APOL1 G0 trypanosome cell rescue assay (Example B5); conditions: geometric mean of at least 2 assay runs, † = single assay run
How it was run: (§1)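 Recombinant APOL1 protein, dispensed from a 2 μg/mL stock, and 250 T. brucei per well were co-incubated with test compound (0.4% DMSO) for 20 h. Viability: CellTiter-Glo luminescence.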

[3] = test system: Trypanosoma brucei Lister 427 VSG221 with APOL1 G1 recombinant protein; assay: APOL1 G1 trypanosome cell rescue assay (Example B5); conditions: geometric mean of at least 2 assay runs, † = single assay run
How it was run: as §1

[4] = test system: Trypanosoma brucei Lister 427 VSG221 with APOL1 G2 recombinant protein; assay: APOL1 G2 trypanosome cell rescue assay (Example B5); conditions: geometric mean of at least 2 assay runs, † = single assay run
How it was run: as §1

[5] = Homo sapiens, HEK293, HEK293 clonal line overexpressing APOL1 G1
[6] = Trypanosoma brucei, 20 h, read-out: APOL1 G0 Trypanosome Rescue EC50, Trypanosoma brucei Lister 427 VSG221 with APOL1 G0 recombinant protein, 20 hours, CellTiter-Glo
[7] = Trypanosoma brucei, 20 h, read-out: APOL1 G1 Trypanosome Rescue EC50, Trypanosoma brucei Lister 427 VSG221 with APOL1 G1 recombinant protein, 20 hours, CellTiter-Glo
[8] = Trypanosoma brucei, 20 h, read-out: APOL1 G2 Trypanosome Rescue EC50, Trypanosoma brucei Lister 427 VSG221 with APOL1 G2 recombinant protein, 20 hours, CellTiter-Glo
[9] = HEK293 clonal line overexpressing APOL1 G1
[10] = read-out: APOL1 G0 Trypanosome Rescue EC50, Trypanosoma brucei Lister 427 VSG221 with APOL1 G0 recombinant protein, 20 hours, CellTiter-Glo
[11] = read-out: APOL1 G1 Trypanosome Rescue EC50, Trypanosoma brucei Lister 427 VSG221 with APOL1 G1 recombinant protein, 20 hours, CellTiter-Glo
[12] = read-out: APOL1 G2 Trypanosome Rescue EC50, Trypanosoma brucei Lister 427 VSG221 with APOL1 G2 recombinant protein, 20 hours, CellTiter-Glo

Compound | EC50 [1, 5] | EC50 [2, 6] | EC50 [3, 7] | EC50 [4, 8] | EC50 [1, 9] | EC50 [2, 10] | EC50 [3, 11] | EC50 [4, 12]
CS(=O)(=O)C1(c2ccc(OCCN3CCC4(CC3)C(=O)Nc3ccc(Cl)cc34)cc2)CCC1 [Compound 180, 5-chloro-1′-{2-[4-(1-methanesulfonylcyclobutyl)phenoxy]ethyl}-1,2-dihydrospiro[indole-3,4′-piperidin]-2-one] | 74.9 nM | 35.2 nM | 47.7 nM | 13.3 nM |  |  |  | 
CC(C)N1C(=O)Cc2cc(OCCN3CCC4(CC3)C(=O)Nc3ccc(C#N)cc34)ccc21 [Compound 144, 2-oxo-1′-(2-{[2-oxo-1-(propan-2-yl)-2,3-dihydro-1H-indol-5-yl]oxy}ethyl)-1,2-dihydrospiro[indole-3,4′-piperidine]-5-carbonitrile] | 246 nM | 224 nM | 358 nM | 101 nM |  |  |  | 
Cn1c(=O)oc2cc(OCCN3CCC4(CC3)C(=O)Nc3ccc(C#N)cc34)ccc21 [Compound 132, 1′-{2-[(3-methyl-2-oxo-2,3-dihydro-1,3-benzoxazol-6-yl)oxy]ethyl}-2-oxo-1,2-dihydrospiro[indole-3,4′-piperidine]-5-carbonitrile] | 685 nM | 525 nM | 731 nM | 180 nM |  |  |  | 
CCS(=O)(=O)C1(c2ccc(OCCN3CCC4(CC3)C(=O)Nc3ccc(C#N)cc34)cc2)COC1 [Compound 174, 1′-(2-{4-[3-(ethanesulfonyl)oxetan-3-yl]phenoxy}ethyl)-2-oxo-1,2-dihydrospiro[indole-3,4′-piperidine]-5-carbonitrile] | 253 nM | 401 nM | 481 nM | 137 nM |  |  |  | 
CS(=O)(=O)c1ccc(OCCN2CCC3(CC2)C(=O)Nc2ccc(C#N)cc23)cc1C(F)F [Compound 100, 1′-{2-[3-(difluoromethyl)-4-methanesulfonylphenoxy]ethyl}-2-oxo-1,2-dihydrospiro[indole-3,4′-piperidine]-5-carbonitrile] | 134 nM | 63.5 nM | 113 nM | 25.9 nM |  |  |  | 
C[C@@H](COc1ccc(S(C)(=O)=O)cc1)N1CCC2(CC1)C(=O)Nc1ccc(Cl)cc12 (single isomer, unassigned) [Compound 10] | 444 nM | 351 nM | 352 nM | 93.3 nM |  |  |  | 
CS(=O)(=O)C1(c2ccc(OCCN3CCC4(CC3)C(=O)Nc3ccc(Cl)cc34)cc2)CC1 [Compound 102, 5-chloro-1′-{2-[4-(1-methanesulfonylcyclopropyl)phenoxy]ethyl}-1,2-dihydrospiro[indole-3,4′-piperidin]-2-one] | 111 nM | 47.3 nM | 50.5 nM | 18 nM |  |  |  | 
Cc1cc(OCCN2CCC3(CC2)C(=O)Nc2ccc(Cl)cc23)ccc1S(C)(=O)=O [Compound 110, 5-chloro-1′-[2-(4-methanesulfonyl-3-methylphenoxy)ethyl]-1,2-dihydrospiro[indole-3,4′-piperidin]-2-one] | 100 nM | 71.4 nM | 87.7 nM | 26.1 nM |  |  |  | 
CC(c1ccc(OCCN2CCC3(CC2)C(=O)Nc2ccc(C#N)cc23)cc1)S(C)(=O)=O (single isomer, unassigned) [Compound 135, (R) or (S)-1′-{2-[4-(1-methanesulfonylethyl)phenoxy]ethyl}-2-oxo-1,2-dihydrospiro[indole-3,4′-piperidine]-5-carbonitrile] |  |  |  |  | 1140 nM | 1080 nM | 1200 nM | 303 nM
CN1C(=O)Cc2cc(OCCN3CCC4(CC3)C(=O)Nc3ccc(C#N)cc34)cc(F)c21 [Compound 169, 1′-{2-[(7-fluoro-1-methyl-2-oxo-2,3-dihydro-1H-indol-5-yl)oxy]ethyl}-2-oxo-1,2-dihydrospiro[indole-3,4′-piperidine]-5-carbonitrile] | 1030 nM | 619 nM | 918 nM | 295 nM |  |  |  | 
CS(=O)(=O)c1ccc(OCCN2CCC3(CC2)C(=O)Nc2ccc(C#N)cc23)cc1OC(F)F [Compound 164, 1′-{2-[3-(difluoromethoxy)-4-methanesulfonylphenoxy]ethyl}-2-oxo-1,2-dihydrospiro[indole-3,4′-piperidine]-5-carbonitrile] | 316 nM | 211 nM | 349 nM | 87.1 nM |  |  |  | 
CS(=O)(=O)C1(c2ccc(OCCN3CCC4(CC3)C(=O)Nc3ccc(C#N)cc34)cc2C(F)(F)F)COC1 [Compound 166, 1′-{2-[4-(3-methanesulfonyloxetan-3-yl)-3-(trifluoromethyl)phenoxy]ethyl}-2-oxo-1,2-dihydrospiro[indole-3,4′-piperidine]-5-carbonitrile] | 163 nM | 94 nM | 112 nM | 33.8 nM |  |  |  | 
Cc1cc(OCCN2CCC3(CC2)C(=O)Nc2ccc(Cl)cc23)cc(C)c1S(C)(=O)=O [Compound 129, 5-chloro-1′-[2-(4-methanesulfonyl-3,5-dimethylphenoxy)ethyl]-1,2-dihydrospiro[indole-3,4′-piperidin]-2-one] | 72.8 nM | 65.2 nM | 69.5 nM | 22.2 nM |  |  |  | 
O=C1Nc2ccc(Cl)cc2C12CCN(CCOc1ccc3c(cnn3C3COC3)c1)CC2 [Compound 15, 5-chloro-1′-(2-{[1-(oxetan-3-yl)-1H-indazol-5-yl]oxy}ethyl)-1,2-dihydrospiro[indole-3,4′-piperidin]-2-one] | 279 nM | 336 nM | 342 nM | 124 nM |  |  |  | 
CS(=O)(=O)C1(c2ccc(OCCN3CCC4(CC3)C(=O)Nc3ccc(Cl)cc34)cc2C(F)(F)F)COC1 [Compound 165, 5-chloro-1′-{2-[4-(3-methanesulfonyloxetan-3-yl)-3-(trifluoromethyl)phenoxy]ethyl}-1,2-dihydrospiro[indole-3,4′-piperidin]-2-one] | 59 nM | 28.7 nM | 33.8 nM | 11.1 nM |  |  |  | 
CC(c1c(F)cc(OCCN2CCC3(CC2)C(=O)Nc2ccc(C#N)cc23)cc1F)S(C)(=O)=O (single isomer, unassigned) [Compound 139, (R) or (S)-1′-{2-[3,5-difluoro-4-(1-methanesulfonylethyl)phenoxy]ethyl}-2-oxo-1,2-dihydrospiro[indole-3,4′-piperidine]-5-carbonitrile] |  |  |  |  | 383 nM | 335 nM | 537 nM | 147 nM
CC(C)n1ncc2cc(OCCN3CCC4(CC3)C(=O)Nc3ccc(Cl)cc34)ccc21 [Compound 16, 5-chloro-1′-(2-{[1-(propan-2-yl)-1H-indazol-5-yl]oxy}ethyl)-1,2-dihydrospiro[indole-3,4′-piperidin]-2-one] | 295 nM | 267 nM | 312 nM | 110 nM |  |  |  | 
CS(=O)(=O)C1(c2ccc(OCCN3CCC4(CC3)C(=O)N(CC(F)(F)F)c3ccc(Cl)cc34)cc2)COC1 [Compound 185, 5-chloro-1′-{2-[4-(3-methanesulfonyloxetan-3-yl)phenoxy]ethyl}-1-(2,2,2-trifluoroethyl)-1,2-dihydrospiro[indole-3,4′-piperidin]-2-one] | 231 nM | 310 nM | 479 nM | 140 nM |  |  |  | 
CC(C)(C#N)c1ccc(OCCN2CCC3(CC2)C(=O)Nc2ccc(C#N)cc23)cc1 [Compound 157, 1′-{2-[4-(1-cyano-1-methylethyl)phenoxy]ethyl}-2-oxo-1,2-dihydrospiro[indole-3,4′-piperidine]-5-carbonitrile] | 152 nM | 109 nM | 142 nM | 45.1 nM |  |  |  | 
CS(=O)(=O)c1ccc(OCCN2CCC3(CC2)C(=O)Nc2ccc(Cl)cc23)cc1Cl [Compound 155, 5-chloro-1′-[2-(3-chloro-4-methanesulfonylphenoxy)ethyl]-1,2-dihydrospiro[indole-3,4′-piperidin]-2-one] | 67 nM | 25.9 nM | 36.1 nM | 9.65 nM |  |  |  | 
N#Cc1ccc2c(c1)C1(CCN(CCOc3ccc(S(=O)(=O)C(F)F)cc3)CC1)C(=O)N2 [Compound 113, 1′-[2-(4-difluoromethanesulfonylphenoxy)ethyl]-2-oxo-1,2-dihydrospiro[indole-3,4′-piperidine]-5-carbonitrile] | 176 nM | 124 nM | 154 nM | 46.7 nM |  |  |  | 
